{
  "source": "patent US20120122991A1",
  "about": "“METHOD FOR TREATING CANCER BY INCREASING AMP-ACTIVATED KINASE ACTIVITY” (Dana-Farber Cancer Institute, Inc., priority 2003, published 2012)",
  "tested_on": "mTOR signaling",
  "assay": "mTOR signaling (S6K1, 4E-BP1 phosphorylation) in transfected HeLa cells",
  "assay_type": "cell-based, human",
  "conditions": "HeLa cells with wild-type LKB1, 2 mM AICAR for 2 h",
  "procedure": "FIG. 6A: Subconfluent cycling littermate-matched primary MEFs of the indicated genotype were left untreated (NT) or were treated with 2 mM AICAR for 2 h. Total cell extracts were immunoblotted for phospho-Thr172 AMPK (P-AMPK), phospho Ser79 ACC (P-ACC), phospho-Thr389 S6K1 (P-S6K1), phospho-Ser9 GSK-3b (P-GSK-3), and phospho-Ser235/236 S6 ribosomal protein (P-S6). FIG. 6B: An immortalized LKB1−/− MEF cell line was reconstituted with vector (v), wild-type (wt) or kinase-dead (kd) human LKB1-expressing retroviruses. Cells were treated as in FIG. 6A. eIF4E was used as a loading control. *represents a cross-reactive band with the anti-LKB1 antisera as characterized previously (Shaw et al. (2004) Proc. Natl. Acad. Sci. USA 101, 3329-3335). FIG. 6C: Endogenous 5′ cap complexes were isolated from LKB1 primary MEFs as in A. 10% of the total cell lysate is shown in the left panels; cap complexes purified on 7-methyl sepharose are shown in right panels. Each were immunoblotted with total 4E-BP1 and eIF4E antibodies. eIF4E is shown as a loading control. FIG. 6D: Hela cells (which are LKB1-deficient) were transiently transfected with vector, FLAG-tagged wild-type, or kinase-dead LKB1 along with an HA-tagged S6K1 or an HA-tagged 4E-BP1 construct, then treated where indicated with 2 mM AICAR for 2 h. […]",
  "data": [
    {"smiles": "NC(=O)c1ncn([C@@H]2O[C@H](CO)[C@@H](O)[C@H]2O)c1N", "note": "[AICAR, 5-aminoimidazole-4-carboxamide 1-β-D-ribofuranoside]", "values": [
      {"measurement": "S6K1 and 4E-BP1 phosphorylation", "result": "inhibition"}
    ]}
  ]
}
